We go through 18 compounds from patent US10246429B2, “Vinyl fluoride cyclopropyl fused thiazin-2-amine compounds as beta-secretase inhibitors and methods of use” (AMGEN INC., priority 2015, dated 2019).

In experiment [1] the target is T1, BACE1 (Homo sapiens (Human), UniProt P56817). As to the kind of experiment: In vitro enzymatic BACE1 FRET assay. The format is biochemical. The following applies: read-out: IC50 IP (μM) BACE1 Enzyme.
Target sequence in this assay (P56817 46-501): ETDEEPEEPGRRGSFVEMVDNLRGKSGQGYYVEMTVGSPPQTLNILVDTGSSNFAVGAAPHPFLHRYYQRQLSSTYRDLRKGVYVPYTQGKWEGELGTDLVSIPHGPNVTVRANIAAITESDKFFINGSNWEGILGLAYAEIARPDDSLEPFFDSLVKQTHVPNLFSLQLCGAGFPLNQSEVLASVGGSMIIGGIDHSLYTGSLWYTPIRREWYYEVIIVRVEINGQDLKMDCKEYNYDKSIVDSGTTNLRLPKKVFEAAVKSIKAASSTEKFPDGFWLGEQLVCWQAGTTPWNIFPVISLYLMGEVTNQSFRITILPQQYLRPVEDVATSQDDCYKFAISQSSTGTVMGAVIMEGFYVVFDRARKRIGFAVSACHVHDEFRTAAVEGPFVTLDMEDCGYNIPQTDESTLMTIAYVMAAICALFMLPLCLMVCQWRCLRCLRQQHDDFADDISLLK
From the text: (§1) In Vitro Enzymatic BACE1 and BACE2 FRET (Fluorescence Resonance Energy Transfer) Assays (Enzyme Assay Data in Table 1)
Experiment [2] deals with T1, BACE1. Put plainly: BACE1 cell assay. The format is cell-based.
Target sequence in this assay (P56817 46-501, species assumed): as the sequence (P56817 46-501) above
Experiment [3] addresses BACE2 (Homo sapiens (Human), UniProt Q9Y5Z0). Put plainly: In vitro enzymatic BACE2 FRET assay. It counts as biochemical. The following applies: read-out: IC50 IP (μM) BACE2 Enzyme.
From the text: as §1
For experiment [4], the target named is Cathepsin D (CatD) (Homo sapiens (Human), UniProt P07339). As to the kind of experiment: CatD assay. The format is biochemical. The following applies: read-out: IC50 IP (μM) CatD.
Where [5] appears, read: read-out: IC50 IP (μM) BACE1 Cell.

One may read the IC50 as the midpoint of a concentration-inhibition curve.

Structures are written as SMILES.

Chain of Cathepsin D (CatD) (P07339 65-412, species assumed): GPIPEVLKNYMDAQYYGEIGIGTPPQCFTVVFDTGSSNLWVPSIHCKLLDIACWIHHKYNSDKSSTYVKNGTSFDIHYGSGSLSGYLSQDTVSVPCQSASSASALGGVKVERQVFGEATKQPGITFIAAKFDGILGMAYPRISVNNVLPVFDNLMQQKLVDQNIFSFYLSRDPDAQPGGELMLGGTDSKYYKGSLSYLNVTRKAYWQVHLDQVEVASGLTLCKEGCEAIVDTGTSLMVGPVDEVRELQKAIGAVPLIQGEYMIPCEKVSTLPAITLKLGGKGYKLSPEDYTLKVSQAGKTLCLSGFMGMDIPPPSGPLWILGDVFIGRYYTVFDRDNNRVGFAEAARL
Chain of BACE2 (Q9Y5Z0 63-518): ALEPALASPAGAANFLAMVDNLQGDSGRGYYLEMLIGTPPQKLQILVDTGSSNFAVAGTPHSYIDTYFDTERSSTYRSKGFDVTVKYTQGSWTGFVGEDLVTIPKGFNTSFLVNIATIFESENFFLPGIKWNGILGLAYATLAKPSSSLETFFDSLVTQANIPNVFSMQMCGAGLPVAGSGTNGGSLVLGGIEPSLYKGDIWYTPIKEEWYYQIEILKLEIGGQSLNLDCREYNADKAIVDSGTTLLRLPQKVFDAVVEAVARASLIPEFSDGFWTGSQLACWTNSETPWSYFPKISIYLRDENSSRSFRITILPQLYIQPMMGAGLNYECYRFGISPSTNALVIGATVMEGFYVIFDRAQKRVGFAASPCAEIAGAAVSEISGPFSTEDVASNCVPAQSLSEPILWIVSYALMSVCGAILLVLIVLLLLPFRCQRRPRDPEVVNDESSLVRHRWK

For `C#Cc1ccc(/C(F)=C/c2ccc(F)c([C@@]3(C)N=C(N)S[C@@]4(C(=O)N(C)C)C[C@H]43)c2)nc1` [Example 110, (1S,5S,6S)-3-amino-5-(5-((Z)-2-(5-ethynylpyridin-2-yl)-2-fluorovinyl)-2-fluorophenyl)-N,N,5-trimethyl-2-thia-4-azabicyclo[4.1.0]hept-3-ene-1-carboxamide], the IC50 worked out at 0.00324 µM in experiment [1], 0.0127 µM in experiment [2] (setting [5]), 0.0144 µM in experiment [3] and 403 µM in experiment [4].

On to `C[C@]1(c2cc(/C=C(\F)c3ccc(Cl)cn3)ccc2F)N=C(N)S[C@@]2(CC#N)C[C@H]21` [Example 114, 2-((1R,5S,6S)-3-amino-5-(5-((Z)-2-(5-chloropyridin-2-yl)-2-fluorovinyl)-2-fluorophenyl)-5-methyl-2-thia-4-azabicyclo[4.1.0]hept-3-en-1-yl)acetonitrile], for which the IC50 was determined as 0.021 µM in experiment [1], 0.446 µM in experiment [2] (setting [5]), 0.0555 µM in experiment [3] and 668 µM in experiment [4].

Take `CC1CCN1C(=O)[C@]12C[C@H]1[C@@](C)(c1cc(/C=C(\F)c3ccc(Cl)cn3)ccc1F)N=C(N)S2` (stereo partly drawn) [Example 116, ((1S,5S,6S)-3-amino-5-(5-((Z)-2-(5-chloropyridin-2-yl)-2-fluorovinyl)-2-fluorophenyl)-5-methyl-2-thia-4-azabicyclo[4.1.0]hept-3-en-1-yl)(2-methylazetidin-1-yl)methanone]: the IC50 turned out to be 0.00623 µM in experiment [1], 0.00929 µM in experiment [2] (setting [5]), 0.0119 µM in experiment [3] and 107 µM in experiment [4].

In the case of `C[C@]1(c2cc(/C=C(\F)c3ccc(Cl)cn3)ccc2F)N=C(N)S[C@@]2(C(=O)Nc3ccccc3)C[C@H]21` [Example 118, (1S,5S,6S)-3-amino-5-(5-((Z)-2-(5-chloropyridin-2-yl)-2-fluorovinyl)-2-fluorophenyl)-5-methyl-N-phenyl-2-thia-4-azabicyclo[4.1.0]hept-3-ene-1-carboxamide], the IC50 in experiment [1] was determined as 0.0299 µM; in experiment [2] (setting [5]), 0.291 µM; in experiment [3] it was 0.047 µM; in experiment [4] it was 13.4 µM.

On to `C[C@@H]1CCN1C(=O)[C@]12C[C@H]1[C@@](C)(c1cc(/C=C(\F)c3ccc(Cl)cn3)ccc1F)N=C(N)S2` [Example 120, ((1S,5S,6S)-3-amino-5-(5-((Z)-2-(5-chloropyridin-2-yl)-2-fluorovinyl)-2-fluorophenyl)-5-methyl-2-thia-4-azabicyclo[4.1.0]hept-3-en-1-yl)((R)-2-methylazetidin-1-yl)methanone], for which the concentration for half-maximal inhibition (IC50) amounted to 0.00275 µM in experiment [1], 0.0267 µM in experiment [2] (setting [5]), 0.0108 µM in experiment [3] and 132 µM in experiment [4].

With `C[C@]1(c2cc(/C=C(\F)c3ccc(C#N)cn3)ccc2F)N=C(N)S[C@@]2(C(=O)N3Cc4ccccc4C3)C[C@H]21` [Example 129, 6-((Z)-2-(3-((1S,5S,6S)-3-amino-1-(isoindoline-2-carbonyl)-5-methyl-2-thia-4-azabicyclo[4.1.0]hept-3-en-5-yl)-4-fluorophenyl)-1-fluorovinyl)nicotinonitrile bis(2,2,2-trifluoroacetate)], the half-inhibitory concentration (IC50) in experiment [1] amounted to 0.00117 µM; in experiment [2] (setting [5]) it was 0.0165 µM; in experiment [3], 0.0311 µM; in experiment [4], 133 µM.

In the case of `COC(=O)[C@H]1CCCN1C(=O)[C@]12C[C@H]1[C@@](C)(c1cc(/C=C(\F)c3ccc(C#N)cn3)ccc1F)N=C(N)S2` [Example 130, (R)-methyl 1-((1S,5S,6S)-3-amino-5-(5-((Z)-2-(5-cyanopyridin-2-yl)-2-fluorovinyl)-2-fluorophenyl)-5-methyl-2-thia-4-azabicyclo[4.1.0]hept-3-ene-1-carbonyl)pyrrolidine-2-carboxylate bis(2,2,2-trifluoroacetate)], the IC50 in experiment [1] worked out at 0.0034 µM; in experiment [2] (setting [5]), 0.00747 µM; in experiment [3] it was 0.121 µM; in experiment [4], 120 µM.

As to `CC1(C)CC2CC(C)(CN2C(=O)[C@]23C[C@H]2[C@@](C)(c2cc(/C=C(\F)c4ccc(C#N)cn4)ccc2F)N=C(N)S3)C1` (stereo partly drawn) [Example 136, 6-((Z)-2-(3-((1S,5S,6S)-3-amino-5-methyl-1-(1,3,3-trimethyl-6-azabicyclo[3.2.1]octane-6-carbonyl)-2-thia-4-azabicyclo[4.1.0]hept-3-en-5-yl)-4-fluorophenyl)-1-fluorovinyl)nicotinonitrile], the IC50 stood at 0.00582 µM in experiment [1], 0.0154 µM in experiment [2] (setting [5]), 0.0363 µM in experiment [3] and 4.18 µM in experiment [4].

Take `C[C@]1(c2cc(/C=C(\F)c3ccc(C#N)cn3)ccc2F)N=C(N)S[C@@]2(C(=O)N3CCNC(=O)CC3)C[C@H]21` [Example 142, 6-((Z)-2-(3-((1S,5S,6S)-3-amino-5-methyl-1-(5-oxo-1,4-diazepane-1-carbonyl)-2-thia-4-azabicyclo[4.1.0]hept-3-en-5-yl)-4-fluorophenyl)-1-fluorovinyl)nicotinonitrile]: the 50% inhibitory concentration (IC50) in experiment [1] is 0.00178 µM; in experiment [2] (setting [5]) it was 0.00219 µM; in experiment [3] it was 0.0173 µM; in experiment [4] it was 400 µM.

As to `CC1CCN(C(=O)[C@]23C[C@H]2[C@@](C)(c2cc(/C=C(\F)c4ccc(C#N)cn4)ccc2F)N=C(N)S3)CC1` [Example 147, 6-((Z)-2-(3-((1S,5S,6S)-3-amino-5-methyl-1-(4-methylpiperidine-1-carbonyl)-2-thia-4-azabicyclo[4.1.0]hept-3-en-5-yl)-4-fluorophenyl)-1-fluorovinyl)nicotinonitrile], the half-inhibitory concentration (IC50) in experiment [1] worked out at 0.000793 µM; in experiment [2] (setting [5]) it was 0.003 µM; in experiment [3], 0.00486 µM; in experiment [4], 93.9 µM.

Consider `CNC(=O)[C@]12C[C@H]1[C@@](C)(c1cc(/C=C(\F)c3cnc(OCC(C)=O)cn3)ccc1F)N=C(N)S2` [Example 152, (1S,5S,6S)-3-amino-5-(2-fluoro-5-((Z)-2-fluoro-2-(5-(2-oxopropoxy)pyrazin-2-yl)vinyl)phenyl)-N,5-dimethyl-2-thia-4-azabicyclo[4.1.0]hept-3-ene-1-carboxamide], for which the 50% inhibitory concentration (IC50) in experiment [1] was determined as 0.052 µM; in experiment [2] (setting [5]) it was 0.0846 µM; in experiment [3] it was 1.51 µM; in experiment [4], 71.8 µM.

Consider `CN(C)C(=O)[C@]12C[C@H]1[C@@](C)(c1cc(/C=C(\F)c3cnc(OCc4ncco4)cn3)ccc1F)N=C(N)S2` [Example 154, (1S,5S,6S)-3-amino-5-(2-fluoro-5-((Z)-2-fluoro-2-(5-(oxazol-2-ylmethoxy)pyrazin-2-yl)vinyl)phenyl)-N,N,5-trimethyl-2-thia-4-azabicyclo[4.1.0]hept-3-ene-1-carboxamide], for which the 50% inhibitory concentration (IC50) was 0.00798 µM in experiment [1], 0.0049 µM in experiment [2] (setting [5]), 0.0455 µM in experiment [3] and 107 µM in experiment [4].

With `CN(C)C(=O)[C@]12C[C@H]1[C@@](C)(c1cc(/C=C(\F)c3cnc(OCC#N)cn3)ccc1F)N=C(N)S2` [Example 158, (1S,5S,6S)-3-amino-5-(5-((Z)-2-(5-(cyanomethoxy)pyrazin-2-yl)-2-fluorovinyl)-2-fluorophenyl)-N,N,5-trimethyl-2-thia-4-azabicyclo[4.1.0]hept-3-ene-1-carboxamide], the concentration for half-maximal inhibition (IC50) in experiment [1] was 0.116 µM; in experiment [2] (setting [5]) it was 0.119 µM; in experiment [3] it was 0.0927 µM; in experiment [4], 400 µM.

Consider `CNC(=O)[C@]12C[C@H]1[C@@](C)(c1cc(/C=C(\F)c3cnc(Br)cn3)ccc1F)N=C(N)S2` [Example 163, (1S,5S,6S)-3-amino-5-(5-((Z)-2-(5-bromopyrazin-2-yl)-2-fluorovinyl)-2-fluorophenyl)-N,5-dimethyl-2-thia-4-azabicyclo[4.1.0]hept-3-ene-1-carboxamide], for which the IC50 was found to be 0.0249 µM in experiment [1], 0.291 µM in experiment [2], 0.266 µM in experiment [3] and 69.7 µM in experiment [4].

As for `CC#Cc1cnc(/C(F)=C/c2ccc(F)c([C@@]3(C)N=C(N)S[C@@]4(C(=O)NC)C[C@H]43)c2)cn1` [Example 164, (1S,5S,6S)-3-amino-5-(2-fluoro-5-((Z)-2-fluoro-2-(5-(prop-1-yn-1-yl)pyrazin-2-yl)vinyl)phenyl)-N,5-dimethyl-2-thia-4-azabicyclo[4.1.0]hept-3-ene-1-carboxamide], the IC50 is 0.0125 µM in experiment [1], 0.0497 µM in experiment [2], 0.229 µM in experiment [3] and 156 µM in experiment [4].

`CNC(=O)[C@]12C[C@H]1[C@@](C)(c1cc(/C=C(\F)c3cnc(C#CC4CC4)cn3)ccc1F)N=C(N)S2` [Example 165, (1S,5S,6S)-3-amino-5-(5-((Z)-2-(5-(cyclopropylethynyl)pyrazin-2-yl)-2-fluorovinyl)-2-fluorophenyl)-N,5-dimethyl-2-thia-4-azabicyclo[4.1.0]hept-3-ene-1-carboxamide]: the 50% inhibitory concentration (IC50) in experiment [1] is 0.00707 µM; in experiment [2] (setting [5]), 0.121 µM; in experiment [3], 0.307 µM; in experiment [4] it was 538 µM.

As for `CNC(=O)[C@]12C[C@H]1[C@@](C)(c1cc(/C=C(\F)c3cnc(C#C[Si](C)(C)C)cn3)ccc1F)N=C(N)S2` [Example 166, (1S,5S,6S)-3-amino-5-(2-fluoro-5-((Z)-2-fluoro-2-(5-((trimethylsilyl)ethynyl)pyrazin-2-yl)vinyl)phenyl)-N,5-dimethyl-2-thia-4-azabicyclo[4.1.0]hept-3-ene-1-carboxamide], the half-maximal inhibitory concentration (IC50) in experiment [1] is 0.0171 µM; in experiment [2] (setting [5]), 0.185 µM; in experiment [3], 1.72 µM; in experiment [4], 146 µM.

Consider `CN(C)C(=O)[C@]12C[C@H]1[C@@](C)(c1cc(/C=C(\F)c3ccc(C#N)cc3)ccc1F)N=C(N)S2` [Example 168, (1S,5S,6S)-3-amino-5-(5-((Z)-2-(4-cyanophenyl)-2-fluorovinyl)-2-fluorophenyl)-N,N,5-trimethyl-2-thia-4-azabicyclo[4.1.0]hept-3-ene-1-carboxamide], for which the IC50 was determined as 0.00496 µM in experiment [1], 0.0368 µM in experiment [2] (setting [5]), 0.104 µM in experiment [3] and 442 µM in experiment [4].
